Laboratory results as given in ChEMBL document CHEMBL5725765, “Inhibitors of lysine specific demethylase-1” (2017).
pIC50: −log10 of the molar value.

Molecular target: Lysine-specific histone demethylase 1A (Homo sapiens, UniProt O60341)
Test: In Vitro Enzyme Inhibition Assay: This assay determines the ability of a test compound to inhibit LSD1 demethylase activity.

Row | SMILES | pIC50
1 | Cn1c(N2CCC(N)CC2)nc(-c2ccc(C#N)c(F)c2)c(-c2ccc(C(F)(F)F)nc2)c1=O | > 7.00
2 | Cn1c(N2CCC(N)CC2)nc(-c2ccc(O)cc2)c(-c2ccc3c(ccn3C)c2)c1=O | < 5.00
3 | Cn1c(N2CCC(N)CC2)nc(-c2ccc(C#N)c(F)c2)c(-c2ccc3c(cnn3C)c2)c1=O | > 7.00
4 | Cn1cc2cc(-c3c(-c4ccc(C#N)cc4)nc(N4CCC(N)CC4)n(C)c3=O)ccc2n1 | > 7.00

More lines, now with the values ahead:

Row | pIC50 | SMILES
5 | > 7.00 | Cn1c(N2CCC(N)CC2)nc(-c2ccc(C#N)c(F)c2)c(-c2ccc3c(ccn3C)c2)c1=O
6 | > 7.00 | Cn1c(N2CCC(N)CC2)nc(-c2ccc(C#N)c(F)c2)c(-c2ccc3cc[nH]c3c2)c1=O
7 | > 7.00 | Cn1c(N2CCC(N)CC2)nc(-c2ccc(C#N)cc2)c(-c2ccc3c(cnn3C)c2)c1=O
